Target: T1, human vasopressin V2 receptor subtype (Homo sapiens, UniProt P30518)
T1 construct: host or cells: CHO cells, stably transfected (pZeoSV vector)
Test: Vasopressin binding in CHO cell membranes expressing human vasopressin V2 subtype receptors ([3H]arginine vasopressin radioligand binding)
Conditions: for IC50: value in parentheses
In short: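 Membranes from CHO cells stably expressing human V2 receptor (25 to 50 μg protein/well) incubated 60 min at room temperature with [3H]arginine vasopressin in Tris-HCl pH 7.4 buffer with MgCl2, BSA and protease inhibitors. Filtration, scintillation counting; percent inhibition at one concentration or IC50 (nM).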

T1 sequence (P30518 whole entry): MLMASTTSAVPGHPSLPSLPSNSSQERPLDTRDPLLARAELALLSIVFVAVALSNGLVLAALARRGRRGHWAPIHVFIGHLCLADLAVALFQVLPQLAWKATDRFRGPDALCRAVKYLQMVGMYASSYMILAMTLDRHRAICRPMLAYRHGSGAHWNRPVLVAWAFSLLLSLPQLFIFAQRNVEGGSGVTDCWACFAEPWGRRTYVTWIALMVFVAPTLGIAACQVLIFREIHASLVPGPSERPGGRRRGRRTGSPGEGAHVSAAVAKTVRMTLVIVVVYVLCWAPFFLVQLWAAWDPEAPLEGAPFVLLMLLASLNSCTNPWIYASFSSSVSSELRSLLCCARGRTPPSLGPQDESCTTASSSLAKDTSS

Compound | inhibition at 0.1 µM (100 nM) | also measured
Cc1cc(C(=O)N2Cc3ccc(C(=O)N4CCN(c5ccncc5)CC4)n3Cc3ccccc32)ccc1-c1ccccc1C(F)(F)F [Example 1] | – | V2 % inhibition @ 100 nM (100 nM): 18%
Cc1cc(C(=O)N2Cc3ccc(C(=O)N4CCN(Cc5ccc[n+]([O-])c5)CC4)n3Cc3ccccc32)ccc1-c1ccccc1C(F)(F)F [Example 2, 10-{[2-Methyl-2′-trifluoromethyl-[1,1′-biphenyl]-4-yl]carbonyl}-3-({4-[(1-oxidopyridin-3-yl)methyl]piperazin-1-yl}carbonyl)-10,11-dihydro-5H-pyrrolo[2,1-c][1,4]benzodiazepine] | – | IC50: 1420 nM
Cc1cc(C(=O)N2Cc3ccc(C(=O)N4CCN(Cc5ccc[n+]([O-])c5C)CC4)n3Cc3ccccc32)ccc1-c1ccccc1C(F)(F)F [Example 3, 3-({4-[(2-Methyl-1-oxidopyridin-3-yl)methyl]piperazin-1-yl}carbonyl)-10-{[2-methyl-2′-trifluoromethyl-[1,1′-biphenyl]-4-yl]carbonyl}-10,11-dihydro-5H-pyrrolo[2,1-c][1,4]benzodiazepine] | – | IC50: > 3000 nM
Cc1cc(C(=O)N2Cc3ccc(C(=O)N(C)Cc4ccc[n+]([O-])c4)n3Cc3ccccc32)ccc1-c1ccccc1C(F)(F)F [Example 4, N-Methyl-10-{[2-methyl-2′-trifluoromethyl-[1,1′-biphenyl]-4-yl]carbonyl}-N-[(1-oxidopyridin-3-yl)methyl]-10,11-dihydro-5H-pyrrolo[2,1-c][1,4]benzodiazepine-3-carboxamide] | – | IC50: 464 nM
COc1cc(C(=O)N2Cc3ccc(C(=O)N(C)Cc4cccnc4)n3Cc3ccccc32)ccc1-c1ccccc1C(F)(F)F [Example 7, 10-{[2-Methoxy-2′-trifluoromethyl-[1,1′-biphenyl]-4-yl]carbonyl}-N-methyl-N-(pyridin-3-ylmethyl)-10,11-dihydro-5H-pyrrolo[2,1-c][1,4]benzodiazepine-3-carboxamide] | – | IC50: 407 nM
COc1cccc(-c2ccc(C(=O)N3Cc4ccc(C(=O)N(C)CCc5ccccn5)n4Cc4ccccc43)cc2C)c1 [Example 62, 10-[(3′-Methoxy-2-methyl-[1,1′-biphenyl]-4-yl)carbonyl]-N-methyl-N-[2-(2-pyridinyl)ethyl]-10,11-dihydro-5H-pyrrolo[2,1-c][1,4]benzodiazepine-3-carboxamide] | – | IC50: 1490 nM
COc1cc(-c2ccccc2C)c(Cl)cc1C(=O)N1Cc2ccc(C(=O)N(C)CCc3ccccn3)n2Cc2ccccc21 [Example 63, 10-[(6-Chloro-3-methoxy-2′-methyl-[1,1′-biphenyl]-4-yl)carbonyl]-N-methyl-N-[2-(2-pyridinyl)ethyl]-10,11-dihydro-5H-pyrrolo[2,1-c][1,4]benzodiazepine-3-carboxamide] | – | IC50: 714 nM
COc1ccccc1-c1ccc(C(=O)N2Cc3ccc(C(=O)N(C)CCc4ccccn4)n3Cc3ccccc32)cc1C [Example 65, 10-[(2′-Methoxy-2-methyl-[1,1′-biphenyl]-4-yl)carbonyl]-N-methyl-N-[2-(2-pyridinyl)ethyl]-10,11-dihydro-5H-pyrrolo[2,1-c][1,4]benzodiazepine-3-carboxamide] | 16% | –
Cc1ccccc1-c1ccc(C(=O)N2Cc3ccc(C(=O)N(C)CCc4ccccn4)n3Cc3ccccc32)cc1C [Example 66, 10-[(2,2′-Dimethyl-[1,1′-biphenyl]-4-yl)carbonyl]-N-methyl-N-[2-(2-pyridinyl)ethyl]-10,11-dihydro-5H-pyrrolo[2,1-c][1,4]benzodiazepine-3-carboxamide] | 24% | –
COc1ccccc1-c1ccc(C(=O)N2Cc3ccc(C(=O)N(C)CCc4ccccn4)n3Cc3ccccc32)cc1 [Example 67, 10-[(2′-Methoxy-[1,1′-biphenyl]-4-yl)carbonyl]-N-methyl-N-[2-(2-pyridinyl)ethyl]-10,11-dihydro-5H-pyrrolo[2,1-c][1,4]benzodiazepine-3-carboxamide] | 24% | –
Cc1ccccc1-c1ccc(C(=O)N2Cc3ccc(C(=O)N(C)CCc4ccccn4)n3Cc3ccccc32)cc1 [Example 68, N-Methyl-10-[(2′-methyl-[1,1′-biphenyl]-4-yl)carbonyl]-N-[2-(2-pyridinyl)ethyl]-10,11-dihydro-5H-pyrrolo[2,1-c][1,4]benzodiazepine-3-carboxamide] | 13% | –
COc1cc(C(=O)N2Cc3ccc(C(=O)N(C)CCc4ccccn4)n3Cc3ccccc32)ccc1-c1ccccc1C [Example 69, 10-[(2-Methoxy-2′-methyl-[1,1′-biphenyl]-4-yl)carbonyl]-N-methyl-N-[2-(2-pyridinyl)ethyl]-10,11-dihydro-5H-pyrrolo[2,1-c][1,4]benzodiazepine-3-carboxamide] | 15% | –
COc1cccc(-c2cc(OC)c(C(=O)N3Cc4ccc(C(=O)N(C)CCc5ccccn5)n4Cc4ccccc43)cc2Cl)c1 [Example 70, 10-[(6-Chloro-3,3′-dimethoxy-[1,1′-biphenyl]-4-yl)carbonyl]-N-methyl-N-[2-(2-pyridinyl)ethyl]-10,11-dihydro-5H-pyrrolo[2,1-c][1,4]benzodiazepine-3-carboxamide] | 10% | –
COc1cc(C(=O)N2Cc3ccc(C(=O)N(C)CCc4ccccn4)n3Cc3ccccc32)ccc1-c1cccc2ccccc12 [Example 71, 10-[3-Methoxy-4-(naphthalen-1-yl)benzoyl]-N-methyl-N-[2-(2-pyridinyl)ethyl]-10,11-dihydro-5H-pyrrolo[2,1-c][1,4]benzodiazepine-3-carboxamide] | 24% | –
COc1cccc(-c2ccc(C(=O)N3Cc4ccc(C(=O)N(C)CCc5ccccn5)n4Cc4ccccc43)cc2OC)c1 [Example 72, 10-[(2,3′-Dimethoxy-[1,1′-biphenyl]-4-yl)carbonyl]-N-methyl-N-[2-(2-pyridinyl)ethyl]-10,11-dihydro-5H-pyrrolo[2,1-c][1,4]benzodiazepine-3-carboxamide] | 11% | –
CN(CCc1ccccn1)C(=O)c1ccc2n1Cc1ccccc1N(C(=O)c1ccc(-c3cccc4ccccc34)cc1Cl)C2 [Example 73, 10-[2-Chloro-4-(naphthalen-1-yl)benzoyl]-N-methyl-N-[2-(2-pyridinyl)ethyl]-10,11-dihydro-5H-pyrrolo[2,1-c][1,4]benzodiazepine-3-carboxamide] | 16% | –
Cc1cc(C(=O)N2Cc3ccc(C(=O)N(C)CCc4ccccn4)n3Cc3ccccc32)ccc1-c1ccccc1C(F)(F)F [Example 74, N-Methyl-10-{[2-methyl-2′-trifluoromethyl-[1,1′-biphenyl]-4-yl]carbonyl}-N-[2-(2-pyridinyl)ethyl]-10,11-dihydro-5H-pyrrolo[2,1-c][1,4]benzodiazepine-3-carboxamide] | 1% | –
COc1ccccc1-c1ccc(C(=O)N2Cc3ccc(C(=O)N4CCN(c5ccccn5)CC4)n3Cc3ccccc32)cc1C [Example 75, {10-[(2′-Methoxy-2-methyl-[1,1′-biphenyl]-4-yl)carbonyl]-10,11-dihydro-5H-pyrrolo[2,1-c][1,4]benzodiazepin-3-yl}[4-(2-pyridinyl)-1-piperazinyl]methanone] | 9% | –
Cc1ccccc1-c1ccc(C(=O)N2Cc3ccc(C(=O)N4CCN(c5ccccn5)CC4)n3Cc3ccccc32)cc1C [Example 76, {10-[(2,2′-Dimethyl-[1,1′-biphenyl]-4-yl)carbonyl]-10,11-dihydro-5H-pyrrolo[2,1-c][1,4]benzodiazepin-3-yl}[4-(2-pyridinyl)-1-piperazinyl]methanone] | 21% | –
COc1cccc(-c2ccc(C(=O)N3Cc4ccc(C(=O)N5CCN(c6ccccn6)CC5)n4Cc4ccccc43)cc2C)c1 [Example 77, {10-[(3′-Methoxy-2-methyl-[1,1′-biphenyl]-4-yl)carbonyl]-10,11-dihydro-5H-pyrrolo[2,1-c][1,4]benzodiazepin-3-yl}[4-(2-pyridinyl)-1-piperazinyl]methanone] | 10% | –
COc1ccccc1-c1ccc(C(=O)N2Cc3ccc(C(=O)N4CCN(c5ccccn5)CC4)n3Cc3ccccc32)cc1 [Example 78, {10-[(2′-Methoxy-[1,1′-biphenyl]-4-yl)carbonyl]-10,11-dihydro-5H-pyrrolo[2,1-c][1,4]benzodiazepin-3-yl}[4-(2-pyridinyl)-1-piperazinyl]methanone] | 8% | –
Cc1ccccc1-c1ccc(C(=O)N2Cc3ccc(C(=O)N4CCN(c5ccccn5)CC4)n3Cc3ccccc32)cc1 [Example 79, {10-[(2′-Methyl-[1,1′-biphenyl]-4-yl)carbonyl]-10,11-dihydro-5H-pyrrolo[2,1-c][1,4]benzodiazepin-3-yl}[4-(2-pyridinyl)-1-piperazinyl]methanone] | 10% | –
COc1cc(C(=O)N2Cc3ccc(C(=O)N4CCN(c5ccccn5)CC4)n3Cc3ccccc32)ccc1-c1ccccc1C [Example 80, {10-[(2-Methoxy-2′-methyl-[1,1′-biphenyl]-4-yl)carbonyl]-10,11-dihydro-5H-pyrrolo[2,1-c][1,4]benzodiazepin-3-yl}[4-(2-pyridinyl)-1-piperazinyl]methanone] | 8% | –
COc1cc(-c2ccccc2C)c(Cl)cc1C(=O)N1Cc2ccc(C(=O)N3CCN(c4ccccn4)CC3)n2Cc2ccccc21 [Example 81, {10-[(6-Chloro-3-methoxy-2′-methyl-[1,1′-biphenyl]-4-yl)carbonyl]-10,11-dihydro-5H-pyrrolo[2,1-c][1,4]benzodiazepin-3-yl}[4-(2-pyridinyl)-1-piperazinyl]methanone] | 5% | –
COc1cccc(-c2cc(OC)c(C(=O)N3Cc4ccc(C(=O)N5CCN(c6ccccn6)CC5)n4Cc4ccccc43)cc2Cl)c1 [Example 82, {10-[(6-Chloro-3,3′-dimethoxy-[1,1′-biphenyl]-4-yl)carbonyl]-10,11-dihydro-5H-pyrrolo[2,1-c][1,4]benzodiazepin-3-yl}[4-(2-pyridinyl)-1-piperazinyl]methanone] | 8% | –
COc1ccccc1-c1ccc(C(=O)N2Cc3ccc(C(=O)N4CCN(c5ccccn5)CC4)n3Cc3ccccc32)cc1OC [Example 84, {10-[(2,2′-Dimethoxy-[1,1′-biphenyl]-4-yl)carbonyl]-10,11-dihydro-5H-pyrrolo[2,1-c][1,4]benzodiazepin-3-yl}[4-(2-pyridinyl)-1-piperazinyl]methanone] | 14% | –

Reference: US7064120B2, “Tricyclic pyridyl carboxamides and derivatives thereof tocolytic oxytocin receptor antagonists” (Wyeth, priority 2001, dated 2006)
